Patent US20250011881A1, “MYC-HSF1 DUAL AMPLIFICATION AS A BIOMARKER FOR CANCER TREATMENT” (The Trustees of Indiana University, priority 2023, published 2025)
Several values for one entry are separate records, joined by “and”; a condition that tells them apart may be missing. Identical values can stand only once. Counter-ions that a name gives are not always drawn.

tested on: ovarian cancer cells with (OVCAR8, OVCAR4) or without (OVSAHO, CAOV3) MYC-HSF1 amplification; experiment: Epigenetic inhibitor drug screen, cell viability (Cell Titer Blue); assay type: cell-based; details: not given

Molecule | Non Amp - AMP (POC) 10 uM
NC(=O)c1ncn([C@@H]2O[C@H](CO)[C@@H](O)[C@H]2O)c1N [AICAR] | 11.27 POC
C/C(O)=C(\C#N)C(=O)Nc1cc(Br)ccc1Br [LFM-A13] | 5.442 POC
NC(=O)c1cccc2cn(-c3ccc([C@@H]4CCCNC4)cc3)nc12 [MK-4827] | −0.7556 POC
Cl.Cl.c1ccc([C@@H]2C[C@H]2NC2CCNCC2)cc1 [GSK-LSD1 2HCl] | 2.922 POC
CN(C)CCCn1cc(C2=C(c3c[nH]c4ccccc34)C(=O)NC2=O)c2ccccc21 [GF 109203X] | 3.766 POC
C/C=C1\NC(=O)[C@H]2CSSCC/C=C/[C@H](CC(=O)N[C@H](C(C)C)C(=O)N2)OC(=O)[C@H](C(C)C)NC1=O [Romidepsin (FK229, depsipeptide), Romidepsin] | 4.459 POC
N=C1NC(=O)/C(=C/c2ccc(O)cc2)S1 [Mirin] | 4.24 POC

same assay, conditions: 10 uM, 48 hrs; average relative cell viability (vs 1% DMSO) of non-amplified cells (OVSAHO, CAOV3) minus that of MYC-HSF1 amplified cells (OVCAR8, OVCAR4); positive = greater response in amplified cells

Molecule | Non Amp - AMP (POC) 10 uM
O=C(Nc1c[nH]nc1-c1nc2ccc(CN3CCOCC3)cc2[nH]1)NC1CC1 [AT9283] | −1.133 POC
COc1ccc(-c2nc(N3CCOCC3)c3sc(CN(C)c4ncc(C(=O)NO)cn4)cc3n2)cn1 [CUDC-907] | 8.159 POC
COc1cc2ncnc(Nc3ccc(O)cc3)c2cc1OC [JANEX-1] | −13.67 POC
COc1ccc(-n2c(SCCCN3C(=O)c4cccc5cccc(c45)C3=O)nnc2-c2ccncc2)cc1 [WIKI4] | 10.07 POC
Inauhzin | −0.3441 POC
O=C(NO)c1cccc(C(=O)NCCc2ccccc2)c1 [BRD73954] | 10.33 POC
CCS(=O)(=O)N1CC(CC#N)(n2cc(-c3ncnc4[nH]ccc34)cn2)C1 [Baricitinib (LY3009104, INCB028050), Baricitinib] | −2.641 POC
CCCCC[C@H](O)CC(=O)CCc1ccc(O)c(OC)c1 [6-gingerol] | −6.674 POC
C[C@@H]1CC(=O)Nc2cccc(-c3ccc4c(c3)c(-c3cnn(C)c3)nn4C)c2N1 [CPI-637] | −2.546 POC
O=C(O)c1ccccc1Nc1cccc(C(F)(F)F)c1 [Flufenamic acid] | −4.318 POC
C1=C/COCc2cc(ccc2OCCN2CCCC2)Nc2nccc(n2)-c2cccc(c2)COC/1 [Pacritinib (SB1518), Pacritinib] | −2.391 POC
COc1cc2c(Nc3ccc(NC(=O)c4ccccc4)cc3)ncnc2cc1OCCCN1CCOCC1 [ZM 447439] | 0.5089 POC
COCCCn1c(N)c(C(=O)NC2CCCC2)c2nc3ccccc3nc21 [CAY10591] | 11.91 POC
Nc1ccccc1NC(=O)c1cnccn1 [BG45] | 25.74 POC
CN1CCc2c(c3ccccc3n2Cc2ccc(C(=O)NO)cc2)C1 [Tubastatin A] | 15.75 POC
COc1cc(C#N)ccc1S(=O)(=O)Nc1ccc2c(c1)cc(C)c(=O)n2C [NI-57] | 11.2 POC
COc1ccc(C2(CNC(=O)c3ccc(NC(=O)c4ccco4)cc3)CCOCC2)cc1 [JW 55] | −6.598 POC
Cl.O=C(Nc1ccccc1-c1cn2c(CN3CCNCC3)csc2n1)c1cnc2ccccc2n1 [SRT1720 HCl] | 4.809 POC
CCCC(CCC)C(=O)[O-].[Na+] [Valproic acid sodium salt] | −19.36 POC
CN1CCN(c2nc(C3=C(c4c[nH]c5ccccc45)C(=O)NC3=O)c3ccccc3n2)CC1 [Sotrastaurin (AEB071), Sotrastaurin] | 10.63 POC
N#Cc1ccc(-c2csc(NN=C3CCCC3)n2)cc1 [Remodelin] | 13.34 POC

Molecule | Non Amp - AMP (POC) 10 uM
CCOC(=O)c1ccc(NC(=O)O[C@H]2[C@H](OC(=O)Nc3ccc4c(c3)OCO4)[C@@H](OC(=O)Nc3ccc4c(c3)OCO4)[C@@H](OC)O[C@@H]2CO)cc1 [BRD 7552] | −0.1565 POC
N#Cc1ccc(COc2ccc(-c3cccc4nc(NC(=O)C5CC5)nn34)cc2)cn1 [GLPG0634 analogue] | −7.702 POC
O=C(CCCCCCC(=O)Nc1cccnc1)NO [Pyroxamide] | 60.34 POC
Cc1cc(C)c(CNC(=O)c2cc(-c3ccc(CN4CCOCC4)cc3)cc3c2cnn3C2CCCC2)c(=O)[nH]1 [EPZ005687] | 15.13 POC
Cc1cc(CN2CCN(c3c(Br)cnc4nc(-c5ccc(N6CCN(C)CC6)cc5)[nH]c34)CC2)no1 [CCT137690] | 9.076 POC
CCS(=O)(=O)N1CCN(c2ccc(Nc3ncc(C(N)=O)c(NC4CC4)n3)cc2)CC1 [Cerdulatinib (PRT062070), Cerdulatinib] | −1.406 POC
O=C(O)c1ccc(Nc2ncc3c(n2)-c2ccc(Cl)cc2C(c2c(F)cccc2F)=NC3)cc1 [MLN8054] | −12.87 POC
Cc1nc(-c2cccnc2)sc1C(=O)Nc1ccccc1-c1cn2c(CN3CCOCC3)csc2n1 [SRT2104 (GSK2245840)] | −1.9 POC
COc1cc(Nc2ncc3c(n2)-c2ccc(Cl)cc2C(c2c(F)cccc2OC)=NC3)ccc1C(=O)O [MLN8237 (Alisertib), Alisertib] | −25.51 POC
CN1CCCN(C(=O)c2cccc(-c3ccc(/C=C4/C(=O)Nc5ccc(Cl)cc54)o3)c2)CC1 [CX-6258] | −7.528 POC
NC(=O)c1cccc(NC(=O)/C=C/c2c[nH]c3ccccc23)c1 [RSC-133] | 26.08 POC
CCC(=O)Nc1cccc(Oc2nc(Nc3ccc(N4CCN(C)CC4)cc3OC)ncc2Cl)c1 [WZ4003] | −24.51 POC
CN1CCN(c2ccc(-c3cccc(CN4CCOCC4)c3)cc2NC(=O)c2c[nH]c(=O)cc2C(F)(F)F)CC1 [OICR-9429] | 12.58 POC
Cn1ncnc1[C@H]1c2n[nH]c(=O)c3cc(F)cc(c23)N[C@@H]1c1ccc(F)cc1 [BMN 673] | −11.28 POC
Clc1cc2c(NC3CCCC3)nnc(-c3ccncc3)c2cc1Cl [A-196] | 2.334 POC
CC(=O)N1c2ccc(-c3ccc(C(=O)O)cc3)cc2[C@H](Nc2ccc(Cl)cc2)C[C@@H]1C [GSK1324726A] | 0.1295 POC
C#CCC(CCCCCC)C(=O)O (stereo not shown) [2-hexyl-4-Pentynoic Acid] | 2.599 POC
CCC(C)SSc1ncc[nH]1 (stereo not shown) [PX 12] | −7.518 POC
C[C@H](NC(=O)/C(C#N)=C/c1cccc(Br)n1)c1ccccc1 [WP1066] | 3.079 POC
Cn1cc(CCn2cnc(-c3cnn(C)c3)c2-c2ccc(C#N)cc2)cn1 [BAZ2-ICR] | 13.57 POC
C=CC(=O)c1ccc2ccccc2c1 [ZM 449829] | 4.711 POC

same assay, conditions: 10 uM, 48 hrs; average relative cell viability (vs 1% DMSO) of non-amplified cells (OVSAHO, CAOV3) minus that of MYC-HSF1 amplified cells (OVCAR8, OVCAR4); positive = greater response in amplified cells; 10 µM

Molecule | Non Amp - AMP (POC) 10 uM
CC(C)Oc1ccc(-c2c[nH]cc2CN(C)CCN)cc1 [MS023] | −0.6323 POC
Cn1cc(CNCC2CCN(c3ncc(C(=O)NO)cn3)CC2)c2ccccc21 [JNJ-26481585] | 38.34 POC and 26.25 POC
CCN(c1cc(-c2ccc(CN3CCOCC3)cc2)cc(C(=O)NCc2c(C)cc(C)[nH]c2=O)c1C)C1CCOCC1 [EPZ6438] | 8.683 POC
CCCC(CCC)C(=O)O [Divalproex Sodium] | −6.451 POC
CCCC(CCC)C(=O)O [Valproic acid] | −3.268 POC
COc1cc2c(cc1OCCCN1CCCC1)N=C(N)C21CCC1 [A-366] | 11.91 POC
Nc1nccc2c1ncn2[C@@H]1C=C(CO)[C@@H](O)[C@H]1O [3-Deazaneplanocin A (DZNep) hydrochloride] | 8.136 POC
CC(=O)Nc1ccc(C(=O)Nc2ccccc2N)cc1 [CI-994, Tacedinaline] | 25.18 POC
O=C(O)c1ccc(CN2CCC(CN[C@@H]3C[C@H]3c3ccccc3)CC2)cc1 [GSK2879552] | 13.47 POC and 12.35 POC
CNCc1ccc(-c2[nH]c3cc(F)cc4c3c2CCNC4=O)cc1 [Rucaparib (free base), Rucaparib] | 8.811 POC
Clc1ccc(N/N=C(\c2ccccc2)c2ccccn2)nc1 [JIB-04] | 13.4 POC and 8.34 POC
C[C@]1(c2nc3c(C(N)=O)cccc3[nH]2)CCCN1 [ABT-888 (Veliparib), Veliparib] | −1.058 POC
CC(C)Oc1ccc(-c2c[nH]cc2CN(C)CCN)cc1 [MS023 (hydrochloride)] | 6.531 POC
Nc1nccc2c1ncn2[C@@H]1C=C(CO)[C@@H](O)[C@H]1O [3-Deazaneplanocin A] | 28.52 POC
CC(C)(C)OC(=O)Nc1ccc(-c2cc(C(=O)NCCCCCCC(=O)NO)no2)cc1 [CAY10603] | 43.89 POC and 29.05 POC
COc1cc(OC)c2c(=O)[nH]c(-c3cc(C)c(OCCO)c(C)c3)nc2c1 [RVX-208] | 12.33 POC and 7.058 POC
CN(C)CCCNC(=O)c1ccc(-c2cc(O)c3ncccc3c2)cc1 [ML-324] | 7.484 POC

same assay, conditions: 10 uM, 48 hrs; average relative cell viability (vs 1% DMSO) of non-amplified cells (OVSAHO, CAOV3) minus that of MYC-HSF1 amplified cells (OVCAR8, OVCAR4); positive = greater response in amplified cells; listed as A 366, 10 µM

Molecule | Non Amp - AMP (POC) 10 uM
COc1cc2c(cc1OCCCN1CCCC1)N=C(N)C21CCC1 [A-366] | 3.68 POC

same assay, conditions: 10 uM, 48 hrs; average relative cell viability (vs 1% DMSO) of non-amplified cells (OVSAHO, CAOV3) minus that of MYC-HSF1 amplified cells (OVCAR8, OVCAR4); positive = greater response in amplified cells; listed as CI994 (Tacedinaline), 10 µM

Molecule | Non Amp - AMP (POC) 10 uM
CC(=O)Nc1ccc(C(=O)Nc2ccccc2N)cc1 [CI-994, Tacedinaline] | 16.47 POC

same assay, conditions: 10 uM, 48 hrs; average relative cell viability (vs 1% DMSO) of non-amplified cells (OVSAHO, CAOV3) minus that of MYC-HSF1 amplified cells (OVCAR8, OVCAR4); positive = greater response in amplified cells; listed as EPZ-6438, 10 µM

Molecule | Non Amp - AMP (POC) 10 uM
CCN(c1cc(-c2ccc(CN3CCOCC3)cc2)cc(C(=O)NCc2c(C)cc(C)[nH]c2=O)c1C)C1CCOCC1 [EPZ6438] | 3.862 POC

same assay, conditions: 10 uM, 48 hrs; average relative cell viability (vs 1% DMSO) of non-amplified cells (OVSAHO, CAOV3) minus that of MYC-HSF1 amplified cells (OVCAR8, OVCAR4); positive = greater response in amplified cells; listed as ML324, 10 µM

Molecule | Non Amp - AMP (POC) 10 uM
CN(C)CCCNC(=O)c1ccc(-c2cc(O)c3ncccc3c2)cc1 [ML-324] | 4.315 POC
